Measurements taken from PubChem BioAssay AID328 (DTP/NCI, 2004).
Where “and” joins values, the source holds several entries; their conditions need not be identical. Equal entries are not always repeated. Toxic doses and inconclusive results are not listed. How the source made its calls: active means survival T/C of 150% or more; inactive means T/C below 125% in these data.

Test system: BDF1 mice, P388 leukemia ip, median survival T/C
Experiment: NCI In Vivo Anticancer Drug Screen. Data for tumor model P388 Leukemia (intraperitoneal) in B6D2F1 (BDF1) mice
Conditions: endpoint: median survival time, higher = longer survival
Summary of the method: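 In tumour-bearing mice, survival after compound treatment is set against the vehicle group and given as a quotient.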

[1] = dose: 100.0 mg/kg/injection, schedule: Q01DX009 (ip), vehicle: Klucel (hydroxypropylcellulose) (HPC)
[2] = dose: 200.0 mg/kg/injection, schedule: Q01DX009 (ip), vehicle: Klucel (hydroxypropylcellulose) (HPC)
[3] = dose: 400.0 mg/kg/injection, schedule: Q01DX009 (ip), vehicle: Klucel (hydroxypropylcellulose) (HPC)
[4] = dose: 50.0 mg/kg/injection, schedule: Q01DX009 (ip), vehicle: Klucel (hydroxypropylcellulose) (HPC)
[5] = dose: 25.0 mg/kg/injection, schedule: Q01DX009 (ip), vehicle: saline with Tween-80
[6] = dose: 50.0 mg/kg/injection, schedule: Q01DX009 (ip), vehicle: saline with Tween-80
[7] = dose: 100.0 mg/kg/injection, schedule: Q01DX009 (ip), vehicle: saline with Tween-80
[8] = dose: 200.0 mg/kg/injection, schedule: Q01DX009 (ip), vehicle: saline with Tween-80
[9] = dose: 25.0 mg/kg/injection, schedule: Q01DX009 (ip), vehicle: water
[10] = dose: 50.0 mg/kg/injection, schedule: Q01DX009 (ip), vehicle: water
[11] = dose: 100.0 mg/kg/injection, schedule: Q01DX009 (ip), vehicle: water
[12] = dose: 100.0 mg/kg/injection, schedule: Q04DX003 (ip), vehicle: water
[13] = dose: 200.0 mg/kg/injection, schedule: Q04DX003 (ip), vehicle: water
[14] = dose: 400.0 mg/kg/injection, schedule: Q04DX003 (ip), vehicle: water
[15] = dose: 50.0 mg/kg/injection, schedule: Q04DX003 (ip), vehicle: saline with Tween-80
[16] = dose: 100.0 mg/kg/injection, schedule: Q04DX003 (ip), vehicle: saline with Tween-80
[17] = dose: 12.5 mg/kg/injection, schedule: Q01DX009 (ip), vehicle: saline
[18] = dose: 25.0 mg/kg/injection, schedule: Q01DX009 (ip), vehicle: saline
[19] = dose: 50.0 mg/kg/injection, schedule: Q01DX009 (ip), vehicle: saline

Measured: T/C

CC12CCC3c4ccccc4CCC3(CO1)C2 (centres undefined)
inactive: [1] 100 % of control | dose: 100.0 mg/kg/injection, schedule: Q04DX003 (ip), vehicle: Klucel (hydroxypropylcellulose) (HPC) 104 % of control | [2] 100 % of control | dose: 200.0 mg/kg/injection, schedule: Q04DX003 (ip), vehicle: Klucel (hydroxypropylcellulose) (HPC) 108 % of control | [3] 100 % of control | dose: 400.0 mg/kg/injection, schedule: Q04DX003 (ip), vehicle: Klucel (hydroxypropylcellulose) (HPC) 100 % of control

O=C1NC(C2CC3C=CC2C3)Nc2ccccc21 (centres undefined)
inactive: dose: 12.5 mg/kg/injection, schedule: Q01DX009 (ip), vehicle: Klucel (hydroxypropylcellulose) (HPC) 104 % of control | dose: 12.5 mg/kg/injection, schedule: Q04DX003 (ip), vehicle: Klucel (hydroxypropylcellulose) (HPC) 100 % of control | dose: 25.0 mg/kg/injection, schedule: Q01DX009 (ip), vehicle: Klucel (hydroxypropylcellulose) (HPC) 104 % of control | dose: 25.0 mg/kg/injection, schedule: Q04DX003 (ip), vehicle: Klucel (hydroxypropylcellulose) (HPC) 86 % of control | [4] 95 % of control

CCOC(=O)CC1=NN=C(N)SC1
inactive: dose: 100.0 mg/kg/injection, schedule: Q01DX009 (ip), vehicle: saline 122 % of control

O=C(O)C(=O)c1ccc(-c2ccccc2)cc1
inactive: [5] 90 % of control | [6] 100 % of control | [7] 113 % of control | dose: 150.0 mg/kg/injection, schedule: Q01DX009 (ip), vehicle: saline with Tween-80 110 % of control

CC(=O)OC1CC(OC2C(O)CC(OC3C(O)CC(OC4CCC5(C)C(CCC6C5CCC5(C)C(C7=CC(=O)OC7)CCC65O)C4)OC3C)OC2C)OC(C)C1OC1OC(CO)C(O)C(O)C1O (centres undefined)
inactive: dose: 5.0 mg/kg/injection, schedule: Q01DX010 (ip), vehicle: carboxymethylcellulose (CMC) 90 % of control

O=C(NC(CO)Cc1ccccc1)c1ccccc1 (centres undefined)
inactive: dose: 9.0 mg/kg/injection, schedule: Q01DX009 (ip), vehicle: Klucel (hydroxypropylcellulose) (HPC) 102 % of control | dose: 18.0 mg/kg/injection, schedule: Q01DX009 (ip), vehicle: Klucel (hydroxypropylcellulose) (HPC) 95 % of control | dose: 36.0 mg/kg/injection, schedule: Q01DX009 (ip), vehicle: Klucel (hydroxypropylcellulose) (HPC) 99 % of control | dose: 72.0 mg/kg/injection, schedule: Q01DX009 (ip), vehicle: Klucel (hydroxypropylcellulose) (HPC) 99 % of control

CS(=O)(=O)CC(O)(c1ccccc1)c1cccnc1 (centres undefined)
inactive: [6] 98 % of control | [7] 104 % of control | [8] 98 % of control

O=C1CC(c2c[nH]c3nccnc23)NN1 (centres undefined)
inactive: dose: 12.5 mg/kg/injection, schedule: Q01DX009 (ip), vehicle: water 100 % of control | [9] 101 % of control | dose: 25.0 mg/kg/injection, schedule: Q04DX003 (ip), vehicle: water 104 % of control | [10] 110 % of control | dose: 50.0 mg/kg/injection, schedule: Q04DX003 (ip), vehicle: water 100 % of control | [11] 100 % of control | [12] 95 % of control | dose: 200.0 mg/kg/injection, schedule: Q01DX009 (ip), vehicle: water 103 % of control | [13] 104 % of control | dose: 300.0 mg/kg/injection, schedule: Q01DX009 (ip), vehicle: water 103 % of control | [14] 100 % of control

CSCC(C(N)=O)c1cc(Cl)ccc1Cl (centres undefined)
inactive: [9] 97 % of control | [10] 103 % of control | [7] 100 % of control | [11] 101 % of control | [12] 95 % of control | [13] 100 % of control | [14] 100 % of control

COC(=O)CCCc1ccc(OC)c(OC)c1
inactive: dose: 12.5 mg/kg/injection, schedule: Q01DX009 (ip), vehicle: saline with Tween-80 96 % of control | [5] 100 % of control | [6] 97 % of control and 123 % of control | [7] 97 % of control and 113 % of control | [8] 105 % of control

NOCc1cccc(Cl)c1
inactive: [15] 91 % of control | [16] 91 % of control

CC(/C=N/NC(N)=S)Cc1ccc(C(C)C)cc1 (centres undefined)
inactive: dose: 7.0 mg/kg/injection, schedule: Q01DX009 (ip), vehicle: saline with Tween-80 110 % of control | dose: 7.0 mg/kg/injection, schedule: Q04DX003 (ip), vehicle: saline with Tween-80 100 % of control | dose: 14.0 mg/kg/injection, schedule: Q01DX009 (ip), vehicle: saline with Tween-80 115 % of control | dose: 14.0 mg/kg/injection, schedule: Q04DX003 (ip), vehicle: saline with Tween-80 104 % of control | dose: 28.0 mg/kg/injection, schedule: Q04DX003 (ip), vehicle: saline with Tween-80 95 % of control

CO/N=C1\CC(C)N2C(=O)C(C(C)C)NC(=O)C(NC(=O)c3c4nc5c(C(=O)NC6C(=O)NC(C(C)C)C(=O)N7C(C)CC(O)C7C(=O)N(C)CC(=O)N(C)C(C(C)C)C(=O)OC6C)ccc(C)c5oc-4c(C)c(=O)c3N)C(CO)OC(=O)C(C)N(C)C(=O)CN(C)C(=O)C12 (centres undefined)
inactive: dose: 0.05 mg/kg/injection, schedule: Q01DX009 (ip), vehicle: saline + alcohol 99 % of control | dose: 0.1 mg/kg/injection, schedule: Q01DX009 (ip), vehicle: saline + alcohol 100 % of control | dose: 0.15 mg/kg/injection, schedule: Q04DX003 (ip), vehicle: saline + alcohol 98 % of control | dose: 0.2 mg/kg/injection, schedule: Q01DX009 (ip), vehicle: saline + alcohol 102 % of control | dose: 0.3 mg/kg/injection, schedule: Q04DX003 (ip), vehicle: saline + alcohol 100 % of control | dose: 0.4 mg/kg/injection, schedule: Q01DX001 (ip), vehicle: saline + alcohol 92 % of control | dose: 0.6 mg/kg/injection, schedule: Q04DX003 (ip), vehicle: saline + alcohol 105 % of control | dose: 0.8 mg/kg/injection, schedule: Q01DX001 (ip), vehicle: saline + alcohol 110 % of control | dose: 1.2 mg/kg/injection, schedule: Q04DX003 (ip), vehicle: saline + alcohol 107 % of control | dose: 1.6 mg/kg/injection, schedule: Q01DX001 (ip), vehicle: saline + alcohol 110 % of control | dose: 2.4 mg/kg/injection, schedule: Q04DX003 (ip), vehicle: saline + alcohol 115 % of control | dose: 3.2 mg/kg/injection, schedule: Q01DX001 (ip), vehicle: saline + alcohol 118 % of control

CCCCN(C(=O)C(F)(F)F)C(C)(C)C(SSSC(c1cccs1)C(C)(C)N(CCCC)C(=O)C(F)(F)F)c1cccs1 (centres undefined)
inactive: [16] 109 % of control

CC(Cl)CNC(=O)Nc1cccc2c1CCCC2 (centres undefined)
inactive: dose: 100.0 mg/kg/injection, schedule: Q01DX001 (ip), vehicle: saline with Tween-80 100 % of control | dose: 200.0 mg/kg/injection, schedule: Q01DX001 (ip), vehicle: saline with Tween-80 109 % of control | dose: 400.0 mg/kg/injection, schedule: Q01DX001 (ip), vehicle: saline with Tween-80 90 % of control

CC1=CC(=O)OC2(C1)CC1CCC2CN1C (centres undefined)
inactive: [17] 110 % of control | [18] 100 % of control | dose: 25.0 mg/kg/injection, schedule: Q04DX003 (ip), vehicle: saline 100 % of control | [19] 100 % of control | dose: 50.0 mg/kg/injection, schedule: Q04DX003 (ip), vehicle: saline 104 % of control

COC(=O)c1cc(Cl)nc2nc(Cl)nc(Cl)c12
inactive: dose: 50.0 mg/kg/injection, schedule: Q01DX009 (ip), vehicle: DMSO 114 % of control | dose: 100.0 mg/kg/injection, schedule: Q01DX009 (ip), vehicle: DMSO 112 % of control | dose: 200.0 mg/kg/injection, schedule: Q01DX009 (ip), vehicle: DMSO 102 % of control

FC(F)(F)c1nc2cccc3c2n1CCC3
inactive: [15] 100 % of control | [16] 91 % of control

Nc1ncnc2c1ncn2C1(CO)OC(CO)C(O)C1O (centres undefined)
inactive: [1] 106 % of control | [2] 115 % of control | [3] 103 % of control

CCOC(=O)C1=C(Nc2ccc([N+](=O)[O-])cc2)CCCC1
inactive: [19] 87 % of control

O=C1C=C(O/C=C/C(C(F)(F)F)C(F)(F)F)C(=O)c2ccccc21
inactive: [7] 109 % of control

C/C(=N/N(C)C)c1ccc([N+](=O)[O-])cc1
inactive: dose: 6.25 mg/kg/injection, schedule: Q01DX009 (ip), vehicle: saline 87 % of control | [17] 91 % of control | [18] 100 % of control | [4] 109 % of control
